Two compounds from patent US20090099167A1, “Organic compounds” (Novartis Institutes for Biomedical Research, priority 2004, published 2009) can be followed below.

The assay has as its target T1, c-Kit (Homo sapiens, UniProt P10721).
T1 construct: whole cytoplasmic domain of c-Kit (aa 544-976); made in house; host or cells: Sf9 or High Five (baculovirus)
In words: c-kit kinase inhibition. The class given is biochemical. Conditions: Table 4.

Structures are written as SMILES.

T1 sequence (P10721 544-976): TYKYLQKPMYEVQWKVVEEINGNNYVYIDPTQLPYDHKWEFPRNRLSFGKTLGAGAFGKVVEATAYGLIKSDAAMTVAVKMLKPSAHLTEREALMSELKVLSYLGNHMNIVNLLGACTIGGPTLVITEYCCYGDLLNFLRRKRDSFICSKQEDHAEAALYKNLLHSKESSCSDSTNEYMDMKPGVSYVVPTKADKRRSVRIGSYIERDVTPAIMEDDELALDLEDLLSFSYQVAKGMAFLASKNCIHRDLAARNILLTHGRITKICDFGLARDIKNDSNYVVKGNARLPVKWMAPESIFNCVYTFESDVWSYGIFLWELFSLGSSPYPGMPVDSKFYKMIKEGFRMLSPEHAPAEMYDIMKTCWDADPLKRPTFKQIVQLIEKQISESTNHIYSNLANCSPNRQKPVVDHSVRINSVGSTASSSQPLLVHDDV

Consider `COc1cccc(-c2cnc3c(-c4cccc(N5CCN(C)CC5)c4)cnn3c2N)c1` [Example 24, 6-(3-Methoxy-phenyl)-3-[3-(4-methyl-piperazin-1-yl)-phenyl]-pyrazolo[1,5-a]pyrimidin-7-ylamine], for which the IC50 was less than 10 µM. In the case of `CN1CCN(c2ccc(-c3cnn4c(N)c(-c5ccsc5)cnc34)cc2)CC1` [Example 21, 3-[4-(4-Methyl-piperazin-1-yl)-phenyl]-6-thiophen-3-yl-pyrazolo[1,5-a]pyrimidin-7-ylamine], the IC50 is less than 10 µM.

For orientation: IC50 means the midpoint of a concentration-inhibition curve. Read a low IC50 as greater potency in that assay.
